Laboratory results from ChEMBL document CHEMBL1201862, “PubChem BioAssay data set” (2004).
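Five concentrations, 48 hours, 96-well plates. GI50 is the concentration that inhibits growth by half.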 Active and inactive are the calls of the source. No stated cut-off is given here; in the data, active = GI50 up to about 1.1 µM and inactive = higher.

Columns and labels:
Assay in all cases: NCI-60 cell line screen, 48 h
OVCAR-5 = test system: OVCAR-5
786-0 = test system: 786-0
MDA-N = test system: MDA-N
MOLT-4 = test system: MOLT-4
SK-MEL-28 = test system: SK-MEL-28
OVCAR-8 = test system: OVCAR-8
TK-10 = test system: TK-10
SF-295 = test system: SF-295
K562 = test system: K562
U-251 = test system: U-251
SW-620 = test system: SW-620
IGROV-1 = test system: IGROV-1
NCI-H460 = test system: NCI-H460
PC-3 = test system: PC-3
NCI-H23 = test system: NCI-H23
RPMI-8226 = test system: RPMI-8226
SK-MEL-5 = test system: SK-MEL-5
UO-31 = test system: UO-31
SR = test system: SR
HOP-92 = test system: HOP-92
SN12C = test system: SN12C
SK-MEL-2 = test system: SK-MEL-2
BT-549 = test system: BT-549
OVCAR-4 = test system: OVCAR-4
LOX IMVI = test system: LOX IMVI
Malme-3M = test system: Malme-3M
CCRF-CEM = test system: CCRF-CEM
Hs-578T = test system: Hs-578T
HL-60 = test system: HL-60
SK-OV-3 = test system: SK-OV-3
NCI-H522 = test system: NCI-H522
A549 = test system: A549
RXF 393 = test system: RXF 393
HCT-116 = test system: HCT-116
NCI/ADR-RES = test system: NCI/ADR-RES
COLO 205 = test system: COLO 205
UACC-257 = test system: UACC-257
M14 = test system: M14
HOP-62 = test system: HOP-62
T47D = test system: T47D
HT-29 = test system: HT-29
SNB-19 = test system: SNB-19
DU-145 = test system: DU-145
HCT-15 = test system: HCT-15
MDA-MB-231 = test system: MDA-MB-231
SF-268 = test system: SF-268
KM12 = test system: KM12
SNB-75 = test system: SNB-75
SF-539 = test system: SF-539
MDA-MB-435 = test system: MDA-MB-435
A498 = test system: A498
EKVX = test system: EKVX
OVCAR-3 = test system: OVCAR-3
HCC 2998 = test system: HCC 2998
UACC-62 = test system: UACC-62
MCF7 = test system: MCF7
NCI-H226 = test system: NCI-H226
ACHN = test system: ACHN
CAKI-1 = test system: CAKI-1

Measured: GI50

Cc1ccc(S(=O)(=O)NC(=O)NC(Cc2c[nH]c3ccccc23)C(=O)O)cc1 (stereo unspecified)
> 100 µM: HCT-15
inactive: OVCAR-5 > 100 µM | 786-0 > 100 µM | MDA-N > 100 µM | MOLT-4 > 100 µM | SK-MEL-28 > 100 µM | OVCAR-8 > 100 µM | TK-10 > 100 µM | SF-295 > 100 µM | K562 > 100 µM | U-251 > 100 µM | SW-620 > 100 µM | IGROV-1 > 100 µM | NCI-H460 > 100 µM | PC-3 > 100 µM | NCI-H23 > 100 µM | RPMI-8226 > 100 µM | SK-MEL-5 > 100 µM | UO-31 > 100 µM | SR > 100 µM | HOP-92 > 100 µM | SN12C > 100 µM | SK-MEL-2 > 100 µM | BT-549 > 100 µM | OVCAR-4 > 100 µM | LOX IMVI > 100 µM | Malme-3M > 100 µM | CCRF-CEM > 100 µM | Hs-578T > 100 µM | HL-60 > 100 µM | SK-OV-3 > 100 µM | NCI-H522 > 100 µM | A549 > 100 µM | RXF 393 > 100 µM | HCT-116 > 100 µM | NCI/ADR-RES > 100 µM | COLO 205 > 100 µM | UACC-257 > 100 µM | M14 > 100 µM | HOP-62 > 100 µM | T47D > 100 µM | HT-29 > 100 µM | SNB-19 > 100 µM | DU-145 > 100 µM | MDA-MB-231 > 100 µM | SF-268 > 100 µM | KM12 > 100 µM | SNB-75 > 100 µM | SF-539 > 100 µM

O=C(NCCCCN(CCCNC(=O)C(F)(F)F)Cc1ccccc1)C(F)(F)F
inactive: OVCAR-5 > 100 µM | MDA-MB-435 > 100 µM | A498 > 100 µM | 786-0 > 100 µM | MOLT-4 > 100 µM | SK-MEL-28 > 100 µM | OVCAR-8 > 100 µM | TK-10 > 100 µM | EKVX > 100 µM | SF-295 > 100 µM | K562 > 100 µM | U-251 > 100 µM | SW-620 > 100 µM | IGROV-1 25.2 µM | NCI-H460 > 100 µM | PC-3 92.3 µM | NCI-H23 > 100 µM | RPMI-8226 > 100 µM | SK-MEL-5 > 100 µM | UO-31 > 100 µM | HOP-92 > 100 µM | SN12C > 100 µM | SK-MEL-2 > 100 µM | BT-549 > 100 µM | OVCAR-4 > 100 µM | CCRF-CEM > 100 µM | OVCAR-3 > 100 µM | Hs-578T > 100 µM | HL-60 > 100 µM | HCC 2998 > 100 µM | SK-OV-3 > 100 µM | UACC-62 > 100 µM | NCI-H522 > 100 µM | A549 > 100 µM | RXF 393 > 100 µM | MCF7 > 100 µM | HCT-116 > 100 µM | NCI/ADR-RES > 100 µM | COLO 205 > 100 µM | UACC-257 > 100 µM | M14 > 100 µM | HOP-62 > 100 µM | NCI-H226 35.4 µM | T47D > 100 µM | ACHN > 100 µM | HT-29 > 100 µM | SNB-19 > 100 µM | DU-145 > 100 µM | MDA-MB-231 > 100 µM | SF-268 > 100 µM | KM12 > 100 µM | SNB-75 > 100 µM | SF-539 > 100 µM
> 100 µM: HCT-15

CSc1nc(NC2CC2)c2c(n1)Sc1nc3ccccc3n1N=C2
active: Hs-578T 0.9 µM
inactive: OVCAR-5 37.2 µM | MDA-MB-435 35.5 µM | A498 10.5 µM | 786-0 6.08 µM | MDA-N 40.2 µM | MOLT-4 > 100 µM | SK-MEL-28 > 100 µM | OVCAR-8 10.1 µM | TK-10 25.1 µM | EKVX 24.2 µM | K562 > 100 µM | U-251 20 µM | SW-620 26.6 µM | IGROV-1 42.6 µM | NCI-H460 25.1 µM | PC-3 29.5 µM | NCI-H23 21.4 µM | SK-MEL-5 17 µM | UO-31 16.5 µM | SR > 100 µM | HOP-92 21 µM | SN12C 8.55 µM | SK-MEL-2 30.3 µM | BT-549 34.2 µM | OVCAR-4 16.7 µM | LOX IMVI 31.8 µM | Malme-3M 16.7 µM | CCRF-CEM > 100 µM | OVCAR-3 17.3 µM | HCC 2998 27.5 µM | SK-OV-3 26.5 µM | UACC-62 17.9 µM | NCI-H522 16.9 µM | A549 18.7 µM | CAKI-1 34.9 µM | MCF7 26.6 µM | HCT-116 9.73 µM | NCI/ADR-RES 20.3 µM | COLO 205 41.9 µM | UACC-257 41.3 µM | M14 39.5 µM | HOP-62 16.3 µM | NCI-H226 16.8 µM | ACHN 11 µM | HT-29 26.3 µM | SNB-19 34.4 µM | DU-145 23.5 µM | MDA-MB-231 17.8 µM | SF-268 17.1 µM | KM12 56.2 µM | SF-539 12.2 µM
28.4 µM: HCT-15
